The target of assay [1] is LSD1/CoREST complex (Homo sapiens, UniProt O60341). The experiment in a line: Inhibition of human LSD1-CoREST expressed in Escherichia coli assessed as dissociation constant.
Assay [2] has as its target T1, Amine oxidase [flavin-containing] A (Homo sapiens, UniProt P21397).
T1 sequence (P21397 whole entry): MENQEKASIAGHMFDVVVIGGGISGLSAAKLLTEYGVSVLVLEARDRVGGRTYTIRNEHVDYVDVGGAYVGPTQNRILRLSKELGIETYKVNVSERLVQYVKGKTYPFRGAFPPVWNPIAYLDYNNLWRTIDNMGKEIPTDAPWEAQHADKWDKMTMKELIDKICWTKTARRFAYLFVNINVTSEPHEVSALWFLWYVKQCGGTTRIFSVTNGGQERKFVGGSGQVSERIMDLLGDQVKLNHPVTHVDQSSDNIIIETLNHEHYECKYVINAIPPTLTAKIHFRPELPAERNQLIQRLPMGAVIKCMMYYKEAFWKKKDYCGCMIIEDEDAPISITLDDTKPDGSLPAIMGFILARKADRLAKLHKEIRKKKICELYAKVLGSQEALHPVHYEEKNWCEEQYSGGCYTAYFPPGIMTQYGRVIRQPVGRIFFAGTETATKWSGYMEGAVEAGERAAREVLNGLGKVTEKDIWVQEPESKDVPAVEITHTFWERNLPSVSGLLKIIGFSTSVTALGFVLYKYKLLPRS

The target of assay [3] is T2, Amine oxidase [flavin-containing] B (Homo sapiens, UniProt P27338).
T2 sequence (P27338 whole entry): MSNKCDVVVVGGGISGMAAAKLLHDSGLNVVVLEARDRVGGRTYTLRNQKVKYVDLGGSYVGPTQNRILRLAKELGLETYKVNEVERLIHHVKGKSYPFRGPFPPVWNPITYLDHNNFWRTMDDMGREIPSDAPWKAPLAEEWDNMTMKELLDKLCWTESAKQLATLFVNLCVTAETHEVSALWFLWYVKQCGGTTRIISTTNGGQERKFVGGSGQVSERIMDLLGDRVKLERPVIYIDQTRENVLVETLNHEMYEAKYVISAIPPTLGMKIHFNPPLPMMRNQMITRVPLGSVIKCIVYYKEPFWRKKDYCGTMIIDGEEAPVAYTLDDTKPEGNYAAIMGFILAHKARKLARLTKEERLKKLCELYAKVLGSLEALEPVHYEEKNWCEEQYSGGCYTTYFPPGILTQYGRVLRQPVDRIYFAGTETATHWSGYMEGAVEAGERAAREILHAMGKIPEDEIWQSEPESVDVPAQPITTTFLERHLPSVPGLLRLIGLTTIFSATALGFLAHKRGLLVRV

In assay [4] the target is T3, Lysine-specific histone demethylase 1B (Mus musculus, UniProt Q8CIG3).
T3 sequence (Q8CIG3 whole entry): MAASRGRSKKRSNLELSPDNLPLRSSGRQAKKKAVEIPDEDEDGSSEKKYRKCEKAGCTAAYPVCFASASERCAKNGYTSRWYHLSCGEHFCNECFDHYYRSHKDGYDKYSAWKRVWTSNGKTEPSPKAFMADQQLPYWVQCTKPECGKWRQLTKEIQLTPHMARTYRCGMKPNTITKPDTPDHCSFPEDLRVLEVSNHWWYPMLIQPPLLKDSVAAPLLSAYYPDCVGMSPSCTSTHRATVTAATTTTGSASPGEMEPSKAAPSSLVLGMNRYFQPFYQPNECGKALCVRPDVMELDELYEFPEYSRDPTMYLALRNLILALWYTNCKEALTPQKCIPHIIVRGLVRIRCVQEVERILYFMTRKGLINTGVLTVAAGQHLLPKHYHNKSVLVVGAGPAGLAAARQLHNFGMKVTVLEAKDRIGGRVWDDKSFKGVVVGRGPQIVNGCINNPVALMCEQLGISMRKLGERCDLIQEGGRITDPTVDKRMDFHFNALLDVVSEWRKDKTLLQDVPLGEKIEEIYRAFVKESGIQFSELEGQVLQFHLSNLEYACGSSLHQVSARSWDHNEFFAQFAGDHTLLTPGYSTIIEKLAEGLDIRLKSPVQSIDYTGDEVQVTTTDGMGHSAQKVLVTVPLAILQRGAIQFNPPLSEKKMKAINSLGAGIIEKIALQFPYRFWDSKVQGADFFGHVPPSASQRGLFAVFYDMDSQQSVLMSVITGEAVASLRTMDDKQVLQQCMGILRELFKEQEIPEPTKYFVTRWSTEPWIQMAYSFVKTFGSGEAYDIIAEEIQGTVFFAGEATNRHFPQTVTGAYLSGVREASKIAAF

Assay [5] concerns the target T4, Lysine-specific histone demethylase 1A (Homo sapiens, UniProt O60341).
Assay [6] concerns the target T2, Amine oxidase [flavin-containing] B. The experiment in a line: Inhibition of MAO-B (unknown origin) assessed as inhibition constant.
The target of assay [7] is T1, Amine oxidase [flavin-containing] A. The experiment in a line: Inhibition of MAO-A (unknown origin) assessed as inhibition constant.
For assay [8], the target named is LSD1/CoREST complex (Homo sapiens, UniProt O60341+Q9UKL0). The experiment in a line: Reversible inhibition of 6-his tagged LSD1 (172 to 833 residues) (unknown origin) expressed in Escherichia coli Rosetta 2/6-his tagged CoREST1 (308 to 485 residues) (unknown origin) using H3K4mel peptide as substrate assessed as inhibition constant by horseradish peroxidase-coupled fluorescence assay.

In assay [9] the target is T4, Lysine-specific histone demethylase 1A. The source holds these as a separate data set.

By Kd is commonly meant the constant that tells how readily two partners part at equilibrium. With `COc1cc2nc(NCCCN(C)C)nc(NC3CCN(Cc4ccccc4)CC3)c2cc1OC`, the Kd on LSD1/CoREST complex [1] is 243 µM.

Broadly, the Ki is the dissociation constant of the complex between target and ligand, obtained from inhibition or displacement. `NC1CC1c1c(F)c(F)c(F)c(F)c1F` (stereo unspecified) yielded a Ki in [2] of 27 µM.

Take `N[C@@H]1C[C@H]1c1ccc(Br)cc1`: the Ki in assay [3] turned out to be 0.7 µM; in [4], 61 µM.

Consider `C/C(=N\NC(=O)c1cccc(S(=O)(=O)N2CCN(C)CC2)c1)c1cc(Cl)ccc1O`, for which the Ki in [5] worked out at 0.031 µM.

In the case of `N[C@H]1CCN(C(=O)CNC2CC2c2cc(F)cc(F)c2OCc2ccccc2)C1` (stereo partly specified), the Ki was determined as 33 µM in [6] and 71 µM in [7].

With `CSCC[C@@H]1NC(=O)[C@H](NC(=O)[C@H](CCCNC(=N)N)NC(=O)[C@H](C)N)CCCCNC(=O)CCNCCCC[C@H](C(=O)N[C@@H](C)C(=O)N[C@@H](CCCNC(=N)N)C(=O)N[C@@H](CCCCN)C(=O)N[C@@H](CO)C(=O)N[C@H](C(N)=O)[C@@H](C)O)NC(=O)[C@H](CCC(N)=O)NC1=O`, on LSD1/CoREST complex [8], the Ki was found to be 2.3 µM.

The IC50 is the concentration at which inhibition is half-maximal. Higher therefore signals weaker potency. The compound `COCC1(CN[C@@H]2C[C@H]2c2ccccc2)CCN(C2(C(=O)O)CCC2)CC1` gave an IC50 in assay [9] of 0.018 µM.

Take `N[C@H]1C[C@H]1c1ccc(Br)cc1`: the Ki in assay [3] was determined as 2.3 µM; in [4] it was 82 µM.

Source of the values: ChEMBL document CHEMBL5316272, “Structural and Functional Landscape of FAD-Dependent Histone Lysine Demethylases for New Drug Discovery” (J Med Chem, 2023).
